target: T1, P2X7 (Homo sapiens, UniProt Q99572); assay: High Throughput P2X7 Calcium Mobilization Assay (Example 4A), antagonist activity; type: cell-based; settings: SH-SY5Y cells, 50% decrease in fluorescence response of cells exposed to 80 μM BzATP
T1 construct: host or cells: SH-SY5Y
T1 sequence (Q99572 1-595): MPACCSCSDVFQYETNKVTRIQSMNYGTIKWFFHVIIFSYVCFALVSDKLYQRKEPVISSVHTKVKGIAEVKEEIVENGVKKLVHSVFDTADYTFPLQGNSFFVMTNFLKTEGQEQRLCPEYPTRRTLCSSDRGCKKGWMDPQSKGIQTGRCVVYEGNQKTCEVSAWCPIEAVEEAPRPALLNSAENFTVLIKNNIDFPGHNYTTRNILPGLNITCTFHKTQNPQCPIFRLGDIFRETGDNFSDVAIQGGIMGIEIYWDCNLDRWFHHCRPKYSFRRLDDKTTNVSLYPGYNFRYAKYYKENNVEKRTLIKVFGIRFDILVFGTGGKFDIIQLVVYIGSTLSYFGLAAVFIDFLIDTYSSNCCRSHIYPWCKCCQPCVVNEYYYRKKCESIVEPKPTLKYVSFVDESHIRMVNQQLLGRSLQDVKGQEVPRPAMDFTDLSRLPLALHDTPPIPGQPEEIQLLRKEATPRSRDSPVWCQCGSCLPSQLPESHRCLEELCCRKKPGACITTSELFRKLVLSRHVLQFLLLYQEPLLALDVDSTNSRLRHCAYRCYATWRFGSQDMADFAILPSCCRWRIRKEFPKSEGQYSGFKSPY
Method in brief: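 SH-SY5Y cells loaded with Fluo-4 AM were preincubated 1 h at room temperature with compound (typically 1–2500 nM) in sucrose/HEPES buffer, pH 7.4, then challenged with 80 μM BzATP (final, about EC50). Peak fluorescence over 2 min gave percent inhibition relative to agonist-only wells, and IC50 came from a Hill-equation fit.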

| Structure (SMILES) | IC50 [nM] |
| --- | --- |
| CN(Cc1cccc(F)c1)Cc1cc2c(C(=O)NCC34CC5CC(CC(C5)C3)C4)cccn2n1 [Compound 69, N-(adamantan-1-ylmethyl)-2-{[(3-fluorobenzyl)(methyl)amino]methyl}pyrazolo [1,5-a]pyridine-4-carboxamide] | ≤ 2000 |
| CN(CCF)C(=O)Cc1cc2c(C(=O)NCC34CC5CC(CC(C5)C3)C4)cccn2n1 [Compound 77, N-(adamantan-1-ylmethyl)-2-{2-[(2-fluoroethyl)(methyl)amino]-2-oxoethyl}pyrazolo[1,5-a]pyridine-4-carboxamide] | ≤ 2000 |
| N[C@@H]1CCN(C(=O)c2cc3c(C(=O)NCC4(c5cccnc5)CCCCC4)cccn3n2)C1 [Compound 57, 2-{[(3R)-3-aminopyrrolidin-1-yl]carbonyl}-N-[(1-pyridin-3-ylcyclohexyl)methyl] pyrazolo[1,5-a]pyridine-4-carboxamide] | ≤ 2000 |
| CC(C)CC(CNC(=O)c1cccn2nc(C(=O)N(C)CCF)cc12)c1ccc(Cl)cc1 (centres unmarked) [Compound 92, Pyrazolo[1,5-a]pyridine-2,4-dicarboxylic acid 4-{[2-(4-chloro-phenyl)-4-methyl-pentyl]-amide} 2-[(2-fluoro-ethyl)-methyl-amide]] | ≤ 2000 |
| CN[C@@H]1CCN(C(=O)c2cc3c(C(=O)NCC45CC6CC(CC(C6)C4)C5)cccn3n2)C1 [Compound 46, N-(adamantan-1-ylmethyl)-2-{[(3R)-3-(methylamino)pyrrolidin-1-yl]carbonyl}pyrazolo [1,5-a]pyridine-4-carboxamide] | ≤ 2000 |
| N[C@@H]1CCCN(C(=O)c2cc3c(C(=O)NCC45CC6CC(CC(C6)C4)C5)cccn3n2)C1 [Compound 17, N-(adamantan-1-ylmethyl)-2-{[(3R)-3-aminopiperidin-1-yl]carbonyl}pyrazolo [1,5-a]pyridine-4-carboxamide] | ≤ 2000 |
| O=C(NCc1ccccn1)c1cc2c(C(=O)NCC34CC5CC(CC(C5)C3)C4)cccn2n1 [Compound 51, 4-N-(adamantan-1-ylmethyl)-2-N-(pyridin-2-ylmethyl)pyrazolo[1,5-a]pyridine-2,4-dicarboxamide] | ≤ 2000 |
| CC(C)CC(CNC(=O)c1cccn2nc(C(=O)N3[C@H](C)COC[C@@H]3C)cc12)c1ccc(C(F)(F)F)cc1 (single isomer, unassigned) [Compound 102] | ≤ 2000 |
| CN(Cc1ccc(F)cc1)C(=O)c1cc2c(C(=O)NCC34CC5CC(CC(C5)C3)C4)cccn2n1 [Compound 67, 4-N-(adamantan-1-ylmethyl)-2-N-(4-fluorobenzyl)-2-N-methylpyrazolo[1,5-a]pyridine-2,4-dicarboxamide] | ≤ 2000 |
| CC(C)N[C@@H]1CCN(C(=O)c2cc3c(C(=O)NCC45CC6CC(CC(C6)C4)C5)cccn3n2)C1 [Compound 16, N-(adamantan-1-ylmethyl)-2-{[(3R)-3-(isopropylamino)pyrrolidin-1-yl]carbonyl}pyrazolo [l,5-a]pyridine-4-carboxamide] | ≤ 2000 |
| CN(CCF)C(=O)c1cc2c(C(=O)NCC34CC5CC(CC(C5)C3)C4)cccn2n1 [Compound 74, 4-N-(adamantan-1-ylmethyl)-2-N-(2-fluoroethyl)-2-N-methylpyrazolo[1,5-a]pyridine-2,4-dicarboxamide] | ≤ 2000 |
| CC(C)CC(CNC(=O)c1cccn2nc(C(=O)N3CC[C@@H](N)C3)cc12)c1cccnc1 (stereo partly drawn) [Compound 56, 2-{[(3R)-3-aminopyrrolidin-1-yl]carbonyl}-N-(4-methyl-2-pyridin-3-ylpentyl)pyrazolo[1,5-a]pyridine-4-carboxamide] | ≤ 2000 |
| CC(C)CC(CNC(=O)c1cccn2nc(C(=O)N3CC[C@@H](N)C3)cc12)c1ccc(C(F)(F)F)cc1 (stereo partly drawn) [Compound 80, 2-{[(3R)-3-aminopyrrolidin-1-yl]carbonyl}-N-{4-methyl-2-[4-(trifluoromethyl)phenyl]pentyl}pyrazolo[1,5-a]pyridine-4-carboxamide] | ≤ 2000 |
| COCCN(C)C(=O)c1cc2c(C(=O)NCC34CC5CC(CC(C5)C3)C4)cccn2n1 [Compound 18, 4-N-(adamantan-1-ylmethyl)-2-N-(2-methoxyethyl)-2-N-methylpyrazolo[1,5-a]pyridine-2,4-dicarboxamide] | ≤ 2000 |
| O=C(NCC1(c2ccc(Cl)cc2)CCCCC1)c1cccn2nc(C(Cc3ccccc3)C(=O)O)cc12 (centres unmarked) [Compound 104, 2-[4-({[1-(4-chlorophenyl)cyclohex-yl]methyl}carbamoyl)pyrazolo[1,5-a]pyridin-2-yl]-3-phenyl propanoic acid] | ≤ 2000 |
| N[C@@H]1CCN(C(=O)c2cc3c(C(=O)NCC(CC4CCCCC4)c4ccccc4)cccn3n2)C1 (stereo partly drawn) [Compound 72, 2-{[(3R)-3-aminopyrrolidin-1-yl]carbonyl}-N-(3-cyclohexyl-2-phenylpropyl)pyrazolo [1,5-a]pyridine-4-carboxamide] | ≤ 2000 |
| CN(Cc1cccnc1)C(=O)c1cc2c(C(=O)NCC34CC5CC(CC(C5)C3)C4)cccn2n1 [Compound 21, 4-N-(adamantan-1-ylmethyl)-2-N-methyl-2-N-(pyridin-3-ylmethyl)pyrazolo[1,5-a]pyridine-2,4-dicarboxamide] | ≤ 2000 |
